Where a name gives a salt, the structure may show the parent alone. Blank lines part the entries; values can stand above or below the compound they belong to.
Columns and labels:
Solubility = format: physicochemical
Lewis lungs carcinoma = test: Antimetastatic activity: life duration of mice with Lewis lungs carcinoma; format: in vivo; settings: after the removal of the primary tumor, 10 days
Protocol: (§1) Antimetastatic properties of esters of 2,6-dimethyl-1,4-dihydropyridine-3,5-dicarboxylic acid have been tested on Walker carcinosarcoma, sarcoma 536 and Lewis pneumocarbinoma using mice and rats as test animals. The preparations were administered for 10 days. Two procedures of the administration of these compounds prior to the removal of the primary tumor and introduction of the compound after the removal of the primary tumor. The efficiency of antimetastatic activity of esters of 2,6-dimethyl-1,4-dihydropyridine-3,5-dicarboxylic acid is assessed by the increase of the life duration of the test animals expressed as percentage of the life duration of the animals administered no preparation and serving as the control.

Walker carcinosarcoma = test: Antimetastatic activity: life duration of rats with Walker carcinosarcoma; format: in vivo; settings: for Life duration, % of the control: Walker carcinosarcoma (rats), 10 days; for increase of the life time: rats, after the removal of Walker carcinoma
Protocol: as §1
Thus, disodium salt of carboxylatomethyl ester of 2,6-dimethyl-1,4-dihydropyridine-3,5-dicarboxylic acid administered in doses of 50 and 100 mg/kg during the period after the removal of Walker carcinoma increases the life time of the rest rats by 120 and 93% respectively. […] The effect of the compounds is most pronounced in tests with Walker carbinosarcoma on rats; a high efficiency is also noticed for sarcoma 536 with rats; less pronounced is the effect on Lewis lungs carcinoma with mice. The use of esters of 2,6-dimethyl-1,4-dihydropyridine-3,5-dicarboxylic acid provides no negative effect on physiological functions and behaviour of the test animals.

sarcoma 536 = test: Antimetastatic activity: life duration of rats with sarcoma 536; format: in vivo; settings: Sarcoma 536 (rats), 10 days
Protocol: as §1

metastases = settings: in words; cited from earlier work
[1] = cited from earlier work
[2] = after the removal of the primary tumor, daily dose 50 mg/kg
[3] = after the removal of the primary tumor, daily dose 150 mg/kg
[4] = before the removal of the primary tumor, daily dose 100 mg/kg

- solubility in alcohol (Solubility): sparingly soluble in alcohol
- solubility in water (Solubility): highly soluble in water
Compound: CC1=C(C(=O)OCC(=O)O)CC(C(=O)OCC(=O)O)=C(C)N1 [disodium carboxylate-methyl ester, disodium salt of carboxylate-methyl ester of 2,6-dimethyl-1,4-dihydropyridine-3,5-dicarboxylic acid]
- Life duration, % of the control (Lewis lungs carcinoma; daily dose 100 mg/kg): 120%
- Life duration, % of the control (Lewis lungs carcinoma; daily dose 150 mg/kg): 113%
- Life duration, % of the control (Walker carcinosarcoma; [2]): 220%
- Life duration, % of the control (Walker carcinosarcoma; after the removal of the primary tumor, daily dose 100 mg/kg): 193%
- Life duration, % of the control (Walker carcinosarcoma; [3]): 112%
- Life duration, % of the control (Walker carcinosarcoma; before the removal of the primary tumor, daily dose 50 mg/kg): 130%
- Life duration, % of the control (Walker carcinosarcoma; [4]): 150%
- increase of the life time (Walker carcinosarcoma; 50 mg/kg): 120%
- increase of the life time (Walker carcinosarcoma; 100 mg/kg): 93%
- Life duration, % of the control (sarcoma 536; [2]): 129%
- Life duration, % of the control (sarcoma 536; [3]): 132%
- Life duration, % of the control (sarcoma 536; [4]): 152%
- Life duration, % of the control (sarcoma 536; before the removal of the primary tumor, daily dose 150 mg/kg): 138%

Compound: CC(CN1CC(=O)NC(=O)C1)N1CC(=O)NC(=O)C1 (racemic) [JCFR-159, (±) 1,2-bis(3,5-dioxopiperazin-1-yl)propane]
- antimetastatic activity (metastases): certain antimetastic activity
- side effects ([1]; in vivo): causes leucopenia, thrombocytopenia and dyspeptic phenomena
- toxicity ([1]; in words): somewhat toxic
- LD50 ([1]; species and route not given): 1,000 mg/kg

- solubility in acetone (Solubility; acetone): highly-soluble
- solubility in alcohol (Solubility): highly-soluble
- solubility in benzene (Solubility; benzene): highly-soluble
- solubility in chloroform (Solubility; chloroform): highly-soluble
- solubility in water (Solubility): insoluble in water
Compound: CC1=C(C(=O)OC2CC(C)CCC2C(C)C)CC(C(=O)OC2CC(C)CCC2C(C)C)=C(C)N1 (centres unmarked) [menthyl ester, Menthyl ester of 2,6-dimethyl-1,4-dihydropyridine-3,5-dicarboxylic acid]
- Life duration, % of the control (Walker carcinosarcoma; prior to the removal of the primary tumor, daily dose 150 mg/kg): 116%
- Life duration, % of the control (Walker carcinosarcoma; prior to the removal of the primary tumor, daily dose 300 mg/kg): 165%

— patent US4293700A, “2,6-Dimethyl-1,4-dihydropyridine-3,5-dicarboxylic acid esters and method for preparing same” (priority 1978, dated 1981)
